This note sets out measurements from patent publication US20020115728A1, “Compositions and methods for treating cardiovascular disorders” (priority 2000, published 2002).

In experiment [1] the test system is plasma from apoE−/−;LDLr−/− mice. As to the kind of experiment: Ex vivo plasma lipid peroxidation initiated by aqueous peroxyl radicals (AAPH). It counts as in vivo. Here is the method:
Pooled plasma obtained from at least 3 mice receiving control diet (circles) or diet supplemented with bisphenol (squares) were treated with 5 mM AAPH and incubated at 37° C. At the times indicted aliquots were removed and analysed for α-TOH (A) and CE-O(O)H (B). 100% α-TOH levels correspond to 28±3 and 20±2 μM for control and H 212/43 plasma, respectively. Data represents the mean±SD (n=4 independent experiments).
Oxidation of plasma, pooled from=3 mice was carried out by addition of the peroxyl radical generator (final concentrations 5 mM) and incubating the reaction mixture at 37° C. under air. Aliquots (50 μL) of the reaction mixture were removed, extracted in methanol/hexane (1:5, v/v), and the consumption of antioxidants and accumulation of lipid oxidation products determined.

Experiment [2] concerns apoE−/−;LDLr−/− mouse aortae. As to the kind of experiment: Aqueous and lipophilic parameters of aortic homogenates. Format: in vivo, mice. To be noted: for Aortic Ascorbate: apoE−/−;LDLr−/− mice. Here is the method: Mouse aortas were excised as follows: after bleeding, the heart was perfused with Dulbecco's phosphate-buffered saline containing 100 μM BHT and 1 mM EDTA (maximum pressure 80 mm Hg) through the left ventricle, the right side chamber being opened to allow flow. For histological samples only, the vasculature was subsequently fixed with formal saline. The hearts and entire aortas from all treatment groups were removed and immediately cleaned of fat and connective tissue. Aortas for biochemical analyses were frozen immediately ([…]) without formalin fixation.
Cleaned aortic segments were thawed, blotted, pooled (n=7 or 8), weighed, added to 2 mL of argon-flushed phosphate-buffered saline (to give ˜40 mg wet tissue/mL) containing BHT (100 μM) and EDTA (1 mM). The tissue was minced with scissors, isoascorbate (5 μM) and α-tocotrienol (1 μM) added as internal standards for ascorbate and vitamin E (including α-TQ), respectively, and the samples transferred to a polytetrafluoroethylene-lined glass tube and homogenised at 4° C. for 5 minutes using a teflon piston rotating at 500 r.p.m. For recovery of oxidised lipids, [^3H]-Ch18:2-OH was incorporated into human LDL and added to the vessel prior to homogenisation. […] For ascorbate measurement, raw homogenate (50 μL) was added to metaphosphoric acid (5% v/v, 50 μL) and frozen on dry ice. Immediately before HPLC analysis, the aliquots were thawed and diluted with phosphate buffer (50 μL, 250 mM, pH 7.4), to adjust the pH. For the analyses of lipids, the remaining homogenate (˜1.8 mL) was divided into 4×450 μl aliquots and each extracted with chilled methanol (2 mL) and hexane (10 mL). Hexane phases were combined and evaporated to dryness and the residue resuspended in isopropanol (200 μL).
Analyses of oxidised and non-oxidised lipids were carried out by RP-HPLC as described in Example 1 except that in some instances UV234 nm rather than post-column chemiluminescence detection was used to measure C18:2-OOH and the corresponding hydroxides (together referred to as CE-O(O)H) which show similar retention times under these chromatographic conditions. α-TQ, α-TOH, α-tocotrienol, D-isosascorbate and ascorbate were determined by HPLC with electrochemical detection. For oxidation of plasma, unesterified cholesterol (which remained non-oxidised in these experiments) was employed as internal standard for all polyunsaturated, lipid-soluble components analysed. Bisphenol and diphenoquinone were analysed by RP-HPLC: flow 1.5 mL/min, 100% solvent A (MeCN/MeOH/H20 10:10:3, v/v/v) for 0-15 min monitored at 270 nm, followed by 50% solvent A and B (MeCN/MeOH 1:1, v/v) for 15-22 min at 242 nm and then 100% B for 22-28 min at 420 nm. Bisphenol and diphenoquinone eluted at 9 and 27 min, respectively. All compounds were quantified by peak area comparison with authentic standards. Where indicated, total cholesterol and triglyceride were assayed enzymatically (Boehringer, Mannheim, Germany).
Unless otherwise stated lipid and antioxidant levels are expressed as pmol/mg protein. LH, lipid containing bisallylic hydrogens. §Values are expressed as nmol/mg protein. Protein ranged from 2.4 - 3.3 mg/mL. ¶Value given represents ratio ×10^3. †Mice were ranked in order of plasma concentration of bisphenol, then corresponding aortae were pooled into groups of 7 and 8 on the basis of plasma drug-levels giving two distinct groups. Low and high bisphenol correspond to 106±40 and 212±50 μM, respectively. Control aortas were pooled randomly into two groups of 7 and 8 respectively.

The test system of experiment [3] is atherosclerotic lesions in apoE−/− mice. As to the kind of experiment: Atherosclerotic lesion cross-section areas at four aortic sites (morphometry). It counts as in vivo. Here is the method:
Male C57BL/6J mice, homozygous for the disrupted apoE gene (apoE−/−) were fed standard chow (Lab-Feed, Sydney, Australia) until aged 10 weeks. […] The high fat diet (control and probucol-supplemented) was prepared, according to the specifications of the Harlan Teklad diet TD88137. […]
Lesions were assessed at four different sites along the aorta, in the aortic root, in the aortic arch, the descending thoracic and in the proximal abdominal aorta, and cross-sections (2-3 μm thick) were prepared and stained with Weigert's hematoxylin-van Gieson.

The mark [4] stands for this setting: pooled plasma of bisphenol-treated mice, 5 mM AAPH, 37° C., 12 h.
Where [5] appears, read: apoE−/− mice, 1% probucol, 24 weeks.

As to `CC(C)(C)c1cc(-c2cc(C(C)(C)C)c(O)c(C(C)(C)C)c2)cc(C(C)(C)C)c1O` [Bisphenol, bisphenol], in experiment [1] (setting [4]), the “CE-OOH detected after 12 h of ex vivo oxidation” value was < 1 µM and the “α-TOH after 12 h of ex vivo oxidation” value is reported as “remained unaltered”. The “100% α-TOH level of plasma before oxidation” value in experiment [1] (pooled plasma of mice receiving bisphenol diet) worked out at 20 ± 2 µM. Also, in experiment [2] (Bisphenol [high]), the “Aortic C” value is listed as 190 nmol/mg protein, the “Aortic C18:2” value is on record as 13.3 nmol/mg protein, the “Aortic C20:4” value is on record as 8.5 nmol/mg protein and the “Aortic CE-O(O)H” value was 2.8 pmol/mg protein. Besides, in experiment [2] (Bisphenol [high]), the “Aortic CE-O(O)H/LH” value was determined as 0.002 ratio ×10^3, the “Aortic α-TOH” value is 586 pmol/mg protein and the “Aortic α-TQ” value is on record as 3.5 pmol/mg protein. For the same compound, the “Aortic Ascorbate” value in experiment [2] (Bisphenol [high] (plasma 212±50 μM)) came to 2570 pmol/mg protein. In experiment [2] (Bisphenol [low]), the “Aortic C” value worked out at 204 nmol/mg protein, the “Aortic C18:2” value was 21.0 nmol/mg protein, the “Aortic C20:4” value was 12.7 nmol/mg protein and the “Aortic CE-O(O)H” value was found to be 14.1 pmol/mg protein. In experiment [2] (Bisphenol [low]), the “Aortic CE-O(O)H/LH” value came to 0.145 ratio ×10^3, the “Aortic α-TOH” value is reported as 669 pmol/mg protein and the “Aortic α-TQ” value is 4.9 pmol/mg protein. Further, in experiment [2] (Bisphenol [low] (plasma 106±40 μM)), the “Aortic Ascorbate” value is 3204 pmol/mg protein. Moreover, the “level of aortic oxidised lipids lower than control” value in experiment [2] (animals with high plasma levels of bisphenol) came to 1000 fold. The “level of aortic oxidised lipids lower than control” value in experiment [2] (animals with low plasma levels of bisphenol) is recorded as 10 fold.
As for `CC(C)(Sc1cc(C(C)(C)C)c(O)c(C(C)(C)C)c1)Sc1cc(C(C)(C)C)c(O)c(C(C)(C)C)c1` [Probucol, probucol], in experiment [3] (setting [5]), the “lesion formation at the abdominal aorta” value was “effectively prevented lesion formation”; the “lesions in the aortic arch and descending thoracic aorta vs control” value is given as “significantly smaller”. For the same compound, the “lesion cross-section area, Aortic Root” value in experiment [3] (apoE−/− mice, high fat diet with 1% (w/w) probucol, 24 weeks, aortic root) was determined as 1180 μm^2 × 10^−3. The “lesion cross-section area, Abdominal Aorta” value in experiment [3] (apoE−/− mice, high fat diet with 1% probucol, 24 weeks, abdominal aorta) was 12 ± 12(3) μm^2 × 10^−3. Further, the “lesion cross-section area, Arch” value in experiment [3] (apoE−/− mice, high fat diet with 1% probucol, 24 weeks, aortic arch) was 140 ± 34 μm^2 × 10^−3. In addition, the “lesion cross-section area, Descending Thoracic Aorta” value in experiment [3] (apoE−/− mice, high fat diet with 1% probucol, 24 weeks, descending thoracic aorta) is reported as “*5 ± 4 (8)* μm^2 × 10^−3”. In addition, the “Treatment effect on lesion area, Abdominal Aorta” value in experiment [3] (probucol vs controls, abdominal aorta) is listed as 10%. Further, the “Treatment effect on lesion area, Arch” value in experiment [3] (probucol vs controls, aortic arch) is on record as 44%. Moreover, the “Treatment effect on lesion area, Aortic Root” value in experiment [3] (probucol vs controls, aortic root) came to 146%. For the same compound, the “Treatment effect on lesion area, Descending Thoracic Aorta” value in experiment [3] (probucol vs controls, descending thoracic aorta) was found to be 15%.
